# Results reported in patent publication US5028716A, “3,5-diamino-1,2,4-triazole derivatives” (Taisho Pharmaceutical Co., Ltd., priority 1989, dated 1991).
# System: lipid peroxidation (cerebral tissue homogenate)
# Experiment: Inhibition test of lipid peroxidation (malondialdehyde formation, thiobarbituric acid method)
# Conditions: 5 μM, rat cerebral tissue supernatant, pH 7.4, 37° C., 30 minutes
row,Molecule,Inhibition (%) Dose 5 μM
1,"Nc1nc(N(CCSSCCN(Cc2ccccc2)c2n[nH]c(N)n2)Cc2ccccc2)n[nH]1 [Compound 7, bis{2-[N-benzyl-N-(5-amino-1,2,4-triazol-3-yl)amino]ethyl}disulfide]",31.4%
2,Nc1n[nH]c(N(CCSSCCN(Cc2cccc(C(F)(F)F)c2)c2nc(N)n[nH]2)Cc2cccc(C(F)(F)F)c2)n1 [Compound 22],36.6%
3,Cc1ccc(CN(CCSSCCN(Cc2ccc(C)cc2)c2nc(N)n[nH]2)c2nc(N)n[nH]2)cc1 [Compound 25],51.8%
4,Nc1n[nH]c(N(CCSSCCN(Cc2cccc([N+](=O)[O-])c2)c2nc(N)n[nH]2)Cc2cccc([N+](=O)[O-])c2)n1 [Compound 19],21.3%
5,Nc1n[nH]c(N(CCSSCCN(Cc2ccc([N+](=O)[O-])cc2)c2nc(N)n[nH]2)Cc2ccc([N+](=O)[O-])cc2)n1 [Compound 20],35.2%
6,Cc1ccccc1CN(CCSSCCN(Cc1ccccc1C)c1nc(N)n[nH]1)c1nc(N)n[nH]1 [Compound 24],41.6%
7,COc1ccc(CN(CCSSCCN(Cc2ccc(OC)cc2)c2nc(N)n[nH]2)c2nc(N)n[nH]2)cc1 [Compound 17],22.2%
8,vitamin E [reference compound],12.6%
9,Nc1n[nH]c(N(CCSSCCN(Cc2cccc(Br)c2)c2nc(N)n[nH]2)Cc2cccc(Br)c2)n1 [Compound 13],51.1%
10,Nc1n[nH]c(N(CCSSCCN(Cc2ccc(Br)cc2)c2nc(N)n[nH]2)Cc2ccc(Br)cc2)n1 [Compound 14],49.2%
11,Nc1n[nH]c(N(CCSSCCN(Cc2ccc(OCc3ccccc3)cc2)c2nc(N)n[nH]2)Cc2ccc(OCc3ccccc3)cc2)n1 [Compound 18],71.7%
12,Cc1ccc(CN(CCSSCCN(Cc2ccc(C)c([N+](=O)[O-])c2)c2nc(N)n[nH]2)c2nc(N)n[nH]2)cc1[N+](=O)[O-] [Compound 37],31.4%
13,Nc1n[nH]c(N(CCSSCCN(Cc2ccc(-c3ccccc3)cc2)c2nc(N)n[nH]2)Cc2ccc(-c3ccccc3)cc2)n1 [Compound 34],55.8%
14,Cc1cc(C)c(CN(CCSSCCN(Cc2c(C)cc(C)cc2C)c2nc(N)n[nH]2)c2nc(N)n[nH]2)c(C)c1 [Compound 30],85.8%
15,Cc1cccc(CN(CCSSCCN(Cc2cccc(C)c2)c2nc(N)n[nH]2)c2nc(N)n[nH]2)c1 [Compound 23],48.1%
16,CC(C)(C)c1ccc(CN(CCSSCCN(Cc2ccc(C(C)(C)C)cc2)c2nc(N)n[nH]2)c2nc(N)n[nH]2)cc1 [Compound 33],35.6%
17,Nc1n[nH]c(N(CCSSCCN(Cc2cccc3ccccc23)c2nc(N)n[nH]2)Cc2cccc3ccccc23)n1 [Compound 38],56.8%
18,Cc1ccc(C)c(CN(CCSSCCN(Cc2cc(C)ccc2C)c2nc(N)n[nH]2)c2nc(N)n[nH]2)c1 [Compound 29],70.8%
19,Nc1n[nH]c(N(CCSSCCN(Cc2ccc3ccccc3c2)c2nc(N)n[nH]2)Cc2ccc3ccccc3c2)n1 [Compound 39],56.3%

# Same assay, conditions: 100 μM, rat cerebral tissue supernatant, pH 7.4, 37° C., 30 minutes
row,Molecule,Inhibition (%) Dose 100 μM
1,"Nc1nc(N(CCSSCCN(Cc2ccccc2)c2n[nH]c(N)n2)Cc2ccccc2)n[nH]1 [Compound 7, bis{2-[N-benzyl-N-(5-amino-1,2,4-triazol-3-yl)amino]ethyl}disulfide]",96.0%
2,Nc1n[nH]c(N(CCSSCCN(Cc2cccc([N+](=O)[O-])c2)c2nc(N)n[nH]2)Cc2cccc([N+](=O)[O-])c2)n1 [Compound 19],100%
3,COc1ccc(CN(CCSSCCN(Cc2ccc(OC)cc2)c2nc(N)n[nH]2)c2nc(N)n[nH]2)cc1 [Compound 17],100%
4,vitamin E [reference compound],30.5%
5,CC(C)N(CCSSCCN(c1nc(N)n[nH]1)C(C)C)c1nc(N)n[nH]1 [Compound 6],55.7%
